Measured values reported in ChEMBL document CHEMBL5154815, “A Series of Substituted Bis-Aminotriazines Are Activators of the Natriuretic Peptide Receptor C” (J Med Chem, 2022).
In brackets after ≈: the same amount, converted by molar mass.

What was measured:
[1] = Mean residence time (0 to infinity) in fasted C57BL/6 mouse at 10 mg/kg, po by LC-MS/MS analysis; settings: in vivo
[2] = Solubility of compound in PBS at 10 mM after 3 hrs by UV analysis; settings: buffer, 10000 µM
[3] = biological target: T1, Atrial natriuretic peptide receptor 3 (Mus musculus, UniProt P70180); assay: Agonist activity at NPRC in knock out mouse mesenteric arteries assessed as vasorelaxation by Organ bath assay; type: tissue-based, Artery
T1 sequence (P70180 whole entry): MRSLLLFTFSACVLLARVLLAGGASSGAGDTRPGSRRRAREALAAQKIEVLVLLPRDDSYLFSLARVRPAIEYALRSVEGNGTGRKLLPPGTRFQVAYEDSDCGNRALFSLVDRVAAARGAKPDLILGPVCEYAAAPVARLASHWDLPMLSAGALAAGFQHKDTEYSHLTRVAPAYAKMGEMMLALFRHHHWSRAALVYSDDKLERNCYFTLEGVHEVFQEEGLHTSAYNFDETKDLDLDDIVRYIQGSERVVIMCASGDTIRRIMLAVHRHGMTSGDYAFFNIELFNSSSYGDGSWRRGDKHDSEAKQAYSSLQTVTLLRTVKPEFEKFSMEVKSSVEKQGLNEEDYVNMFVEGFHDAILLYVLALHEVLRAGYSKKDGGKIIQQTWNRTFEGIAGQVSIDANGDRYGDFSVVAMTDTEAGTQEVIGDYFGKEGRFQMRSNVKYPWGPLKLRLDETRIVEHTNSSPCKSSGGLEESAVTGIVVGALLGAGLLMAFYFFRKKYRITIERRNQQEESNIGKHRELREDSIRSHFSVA

With CC(=O)Nc1ccc(Nc2ncnc(NCCC(=O)OC(C)(C)C)n2)cc1 as the compound, how does the MRT inf [1] read?
The MRT inf was 1.33 h.

And the solubility [2]?
Its solubility is 71.17 mg/mL (≈ 191 mM).

What about the EC50 [3] of the same compound?
The EC50 was 10.1 µM.
